Data from ChEMBL document CHEMBL5352419, “Design, synthesis, and biological evaluation of tetrahydroquinoline amphiphiles as membrane-targeting antimicrobials against pathogenic bacteria and fungi” (Eur J Med Chem, 2022).
In brackets after ≈: the same amount, converted by molar mass.

Columns and labels:
Candida albicans [1] = experiment: Antimicrobial activity against Candida albicans ATCC10231 assessed as fungal growth inhibition incubated for 48 hrs by Sabouraud Dextrose broth based dilution assay; format: functional
Acinetobacter baumannii [2] = experiment: Antimicrobial activity against Acinetobacter baumannii R2889 assessed as bacterial growth inhibition incubated for 24 hrs by Muller Hinton broth based dilution assay; format: functional
Staphylococcus aureus [3] = experiment: Antimicrobial activity against methicillin-resistant Staphylococcus aureus N315 assessed as bacterial growth inhibition incubated for 24 hrs by Muller Hinton broth based dilution assay; format: functional
Klebsiella pneumoniae [4] = experiment: Antimicrobial activity against Klebsiella pneumoniae ATCC14581 assessed as bacterial growth inhibition incubated for 24 hrs by Muller Hinton broth based dilution assay; format: functional
Pseudomonas aeruginosa = experiment: Antimicrobial activity against Pseudomonas aeruginosa ATCC9027 assessed as bacterial growth inhibition incubated for 24 hrs by Muller Hinton broth based dilution assay; format: functional
Klebsiella pneumoniae [5] = experiment: Antimicrobial activity against Klebsiella pneumoniae ATCC10031 assessed as bacterial growth inhibition incubated for 24 hrs by Muller Hinton broth based dilution assay; format: functional
Escherichia coli = experiment: Antimicrobial activity against Escherichia coli ATCC25922 assessed as bacterial growth inhibition incubated for 24 hrs by Muller Hinton broth based dilution assay; format: functional
[6] = Hemolytic activity in rabbit RBC incubated for 1 hr by absorbance based microplate reader assay; format: toxicity, cell-based, Oryctolagus cuniculus, Erythrocyte; settings: rabbit red blood cells (erythrocytes)
Staphylococcus aureus [7] = experiment: Antimicrobial activity against Staphylococcus aureus ATCC29213 assessed as bacterial growth inhibition incubated for 24 hrs by Muller Hinton broth based dilution assay; format: functional
Candida albicans [8] = experiment: Antimicrobial activity against Candida albicans CMCC98001 assessed as fungal growth inhibition incubated for 48 hrs by Sabouraud Dextrose broth based dilution assay; format: functional
Acinetobacter baumannii [9] = experiment: Antimicrobial activity against Acinetobacter baumannii ATCC17978 assessed as bacterial growth inhibition incubated for 24 hrs by Muller Hinton broth based dilution assay; format: functional
Staphylococcus aureus [10] = experiment: Antimicrobial activity against methicillin-resistant Staphylococcus aureus NCTC10442 assessed as bacterial growth inhibition incubated for 24 hrs by Muller Hinton broth based dilution assay; format: functional
Staphylococcus aureus [11] = experiment: Induction of drug resistance in Staphylococcus aureus ATCC29213 assessed as fold increase in MIC at sub-inhibitory concentration incubated for 21 to 22 passages; format: functional

Compound | MIC (Candida albicans [1]) [µg/mL] | MIC (Acinetobacter baumannii [2]) [µg/mL] | MIC (Staphylococcus aureus [3]) [µg/mL] | MIC (Klebsiella pneumoniae [4]) [µg/mL] | MIC (Pseudomonas aeruginosa) [µg/mL] | MIC (Klebsiella pneumoniae [5]) [µg/mL] | MIC (Escherichia coli) [µg/mL] | HC50 at 1 h [6] [µg/mL] | MIC (Staphylococcus aureus [7]) [µg/mL] | MIC (Candida albicans [8]) [µg/mL] | MIC (Acinetobacter baumannii [9]) [µg/mL] | MIC (Staphylococcus aureus [10]) [µg/mL] | fold change (FC) (Staphylococcus aureus [11])
CCCCCCCCCN1CCCc2cc(OCC(=O)N[C@@H](CCCNC(=N)N)C(=O)N[C@@H](CCCNC(=N)N)C(=O)N[C@@H](CCCNC(=N)N)C(=O)OC)ccc21 | > 50 | 50 (≈ 61.3 µM) | 1.56 (≈ 1.91 µM) | 12.5 (≈ 15.3 µM) | 25 (≈ 30.6 µM) | 12.5 (≈ 15.3 µM) | 12.5 (≈ 15.3 µM) | > 200 | 3.12 (≈ 3.83 µM) | 50 (≈ 61.3 µM) | 12.5 (≈ 15.3 µM) | 1.56 (≈ 1.91 µM) | 
CC(C)=CCC/C(C)=C/CN1CCCc2cc(OCCCCNC(=N)N)ccc21 | 3.12 (≈ 7.84 µM) | 3.12 (≈ 7.84 µM) | 0.78 (≈ 1.96 µM) | 1.56 (≈ 3.91 µM) | 6.25 (≈ 15.7 µM) | 1.56 (≈ 3.91 µM) | 3.12 (≈ 7.84 µM) | 154 | 0.78 (≈ 1.96 µM) | 1.56 (≈ 3.91 µM) | 3.12 (≈ 7.84 µM) | 0.78 (≈ 1.96 µM) | 
CCCCCCCN1CCCc2cc(OCCCCNC(=N)N)ccc21 | 6.25 (≈ 17.3 µM) | 6.25 (≈ 17.3 µM) | 0.78 (≈ 2.16 µM) | 1.56 (≈ 4.33 µM) | 6.25 (≈ 17.3 µM) | 1.56 (≈ 4.33 µM) | 3.12 (≈ 8.67 µM) | 169 | 1.56 (≈ 4.33 µM) | 3.12 (≈ 8.67 µM) | 6.25 (≈ 17.3 µM) | 0.78 (≈ 2.16 µM) | 
CCCCCCCCCN1CCCc2cc(OCC(=O)N[C@@H](CCCNC(=N)N)C(=O)N[C@@H](CCCNC(=N)N)C(N)=O)ccc21 | > 50 | 50 (≈ 77.5 µM) | 3.12 (≈ 4.85 µM) | 6.25 (≈ 9.69 µM) | 25 (≈ 38.8 µM) | 6.25 (≈ 9.69 µM) | 25 (≈ 38.8 µM) | > 200 | 3.12 (≈ 4.85 µM) | 50 (≈ 77.5 µM) | 12.5 (≈ 19.4 µM) | 3.12 (≈ 4.85 µM) | 
CCn1cc(C(=O)O)c(=O)c2cc(F)c(N3CCNCC3)cc21 |  |  |  |  |  |  |  |  |  |  |  |  | 1024
CCCCCCCCCN1CCCc2cc(OCC(=O)N[C@@H](CCCNC(=N)N)C(N)=O)ccc21 | 3.12 (≈ 6.39 µM) | 12.5 (≈ 25.6 µM) | 1.56 (≈ 3.19 µM) | 3.12 (≈ 6.39 µM) | 6.25 (≈ 12.8 µM) | 3.12 (≈ 6.39 µM) | 3.12 (≈ 6.39 µM) | > 200 | 1.56 (≈ 3.19 µM) | 3.12 (≈ 6.39 µM) | 12.5 (≈ 25.6 µM) | 1.56 (≈ 3.19 µM) | 
CCCCCCCCCN1CCCc2cc(O)ccc21 | 50 (≈ 182 µM) |  | 12.5 (≈ 45.4 µM) |  |  |  | > 50 | > 200 | 12.5 (≈ 45.4 µM) | 50 (≈ 182 µM) |  | 12.5 (≈ 45.4 µM) | 
CC(C)=CCN1CCCc2cc(OCCCBr)ccc21 | 50 (≈ 148 µM) |  | 25 (≈ 73.9 µM) |  |  |  | > 50 | > 200 | 25 (≈ 73.9 µM) | 50 (≈ 148 µM) |  | 25 (≈ 73.9 µM) | 
CCCCCCCN1CCCc2cc(OCC(=O)OCC)ccc21 | > 50 |  | > 50 |  |  |  | > 50 | > 200 | > 50 | > 50 |  | > 50 | 
CC(C)=CCN1CCCc2cc(OCCCCCCCCCCNC(=N)N)ccc21 | 1.56 (≈ 3.76 µM) | 12.5 (≈ 30.1 µM) | 0.78 (≈ 1.88 µM) | 6.25 (≈ 15.1 µM) | 50 (≈ 121 µM) | 3.12 (≈ 7.54 µM) | 12.5 (≈ 30.1 µM) | > 200 | 1.56 (≈ 3.76 µM) | 1.56 (≈ 3.76 µM) | 25 (≈ 60.3 µM) | 1.56 (≈ 3.76 µM) | 
